Assay results taken from PubChem BioAssay (NCI).
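GI50: concentration for 50% inhibition of growth. TGI: total growth inhibition.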

Key:
Experiment in all cases: NCI-60 cell line screen, 384-well format
786-0 renal = system: 786-0 renal
A498 renal = system: A498 renal
A549 NSCLC = system: A549 NSCLC
ACHN renal = system: ACHN renal
BT-549 breast = system: BT-549 breast
CAKI-1 renal = system: CAKI-1 renal
CCRF-CEM leukemia = system: CCRF-CEM leukemia
COLO 205 colon = system: COLO 205 colon
DU-145 prostate = system: DU-145 prostate
EKVX NSCLC = system: EKVX NSCLC
HCT-116 colon = system: HCT-116 colon
HCT-15 colon = system: HCT-15 colon
HL-60(TB) leukemia = system: HL-60(TB) leukemia
HOP-62 NSCLC = system: HOP-62 NSCLC
HOP-92 NSCLC = system: HOP-92 NSCLC
HS 578T breast = system: HS 578T breast
HT29 colon = system: HT29 colon
IGROV1 ovarian = system: IGROV1 ovarian
K-562 leukemia = system: K-562 leukemia
KM12 colon = system: KM12 colon
LOX IMVI melanoma = system: LOX IMVI melanoma
M14 melanoma = system: M14 melanoma
MALME-3M melanoma = system: MALME-3M melanoma
MDA-MB-231 breast = system: MDA-MB-231 breast
MDA-MB-435 melanoma = system: MDA-MB-435 melanoma
MDA-MB-468 breast = system: MDA-MB-468 breast
MOLT-4 leukemia = system: MOLT-4 leukemia
NCI-H226 lung = system: NCI-H226 lung
NCI-H23 lung = system: NCI-H23 lung
NCI-H322M lung = system: NCI-H322M lung
NCI-H460 NSCLC = system: NCI-H460 NSCLC
NCI-H522 lung = system: NCI-H522 lung
NCI/ADR-RES ovarian = system: NCI/ADR-RES ovarian
OVCAR-3 ovarian = system: OVCAR-3 ovarian
OVCAR-4 ovarian = system: OVCAR-4 ovarian
OVCAR-8 ovarian = system: OVCAR-8 ovarian
PC-3 prostate = system: PC-3 prostate
RPMI-8226 leukemia = system: RPMI-8226 leukemia
RXF 393 renal = system: RXF 393 renal
SF-268 CNS = system: SF-268 CNS
SF-295 CNS = system: SF-295 CNS
SF-539 CNS = system: SF-539 CNS
SK-MEL-28 melanoma = system: SK-MEL-28 melanoma
SK-MEL-5 melanoma = system: SK-MEL-5 melanoma
SK-OV-3 ovarian = system: SK-OV-3 ovarian
SN12C renal = system: SN12C renal
SNB-19 CNS = system: SNB-19 CNS
SNB-75 CNS = system: SNB-75 CNS
SR leukemia = system: SR leukemia
SW-620 colon = system: SW-620 colon
T-47D breast = system: T-47D breast
TK-10 renal = system: TK-10 renal
U251 glioblastoma = system: U251 glioblastoma
UACC-257 melanoma = system: UACC-257 melanoma
UACC-62 melanoma = system: UACC-62 melanoma
UO-31 renal = system: UO-31 renal

Q: What does the source list for COc1cc(-c2cnn(C)c2)ccc1Nc1ncc2ccnc(N[C@@H](C)C(C)(C)C)c2n1?
A: GI50 (786-0 renal): 0.474 µM; TGI (786-0 renal): > 100 µM; GI50 (A498 renal): 0.505 µM; TGI (A498 renal): > 100 µM; GI50 (A549 NSCLC): 0.115 µM; TGI (A549 NSCLC): > 100 µM; GI50 (ACHN renal): 3.26 µM; TGI (ACHN renal): > 100 µM; GI50 (BT-549 breast): 53.6 µM; TGI (BT-549 breast): > 100 µM; GI50 (CAKI-1 renal): > 100 µM; TGI (CAKI-1 renal): > 100 µM; GI50 (CCRF-CEM leukemia): 0.0835 µM; TGI (CCRF-CEM leukemia): 0.271 µM; GI50 (COLO 205 colon): 0.0809 µM; TGI (COLO 205 colon): > 100 µM; GI50 (DU-145 prostate): 0.376 µM; TGI (DU-145 prostate): > 100 µM; GI50 (EKVX NSCLC): > 100 µM; TGI (EKVX NSCLC): > 100 µM; GI50 (HCT-116 colon): 0.0447 µM; TGI (HCT-116 colon): > 100 µM; GI50 (HCT-15 colon): 0.05 µM; TGI (HCT-15 colon): > 100 µM; GI50 (HL-60(TB) leukemia): 0.11 µM; TGI (HL-60(TB) leukemia): 0.318 µM; GI50 (HOP-62 NSCLC): 0.498 µM; TGI (HOP-62 NSCLC): > 100 µM; GI50 (HOP-92 NSCLC): 27.5 µM; TGI (HOP-92 NSCLC): > 100 µM; GI50 (HS 578T breast): 1.7 µM; TGI (HS 578T breast): 45 µM; GI50 (HT29 colon): 0.632 µM; TGI (HT29 colon): > 100 µM; GI50 (IGROV1 ovarian): > 100 µM; TGI (IGROV1 ovarian): > 100 µM; GI50 (K-562 leukemia): 0.878 µM; TGI (K-562 leukemia): > 100 µM; GI50 (KM12 colon): 0.0699 µM; TGI (KM12 colon): > 100 µM; GI50 (LOX IMVI melanoma): 0.0893 µM; TGI (LOX IMVI melanoma): > 100 µM; GI50 (M14 melanoma): 10.9 µM; TGI (M14 melanoma): > 100 µM; GI50 (MALME-3M melanoma): > 100 µM; TGI (MALME-3M melanoma): > 100 µM; GI50 (MDA-MB-231 breast): 3 µM; TGI (MDA-MB-231 breast): > 100 µM; GI50 (MDA-MB-435 melanoma): > 100 µM; TGI (MDA-MB-435 melanoma): > 100 µM; GI50 (MDA-MB-468 breast): 0.486 µM; TGI (MDA-MB-468 breast): > 100 µM; GI50 (MOLT-4 leukemia): 0.026 µM; TGI (MOLT-4 leukemia): 0.0647 µM; GI50 (NCI-H226 lung): > 100 µM; TGI (NCI-H226 lung): > 100 µM; GI50 (NCI-H23 lung): 2.41 µM; TGI (NCI-H23 lung): > 100 µM; GI50 (NCI-H322M lung): > 100 µM; TGI (NCI-H322M lung): > 100 µM; GI50 (NCI-H460 NSCLC): 0.0673 µM; TGI (NCI-H460 NSCLC): > 100 µM; GI50 (NCI-H522 lung): 0.577 µM; TGI (NCI-H522 lung): > 100 µM; GI50 (NCI/ADR-RES ovarian): 0.442 µM; TGI (NCI/ADR-RES ovarian): > 100 µM; GI50 (OVCAR-3 ovarian): > 100 µM; TGI (OVCAR-3 ovarian): > 100 µM; GI50 (OVCAR-4 ovarian): > 100 µM; TGI (OVCAR-4 ovarian): > 100 µM; GI50 (OVCAR-8 ovarian): 0.326 µM; TGI (OVCAR-8 ovarian): > 100 µM; GI50 (PC-3 prostate): > 100 µM; TGI (PC-3 prostate): > 100 µM; GI50 (RPMI-8226 leukemia): 0.302 µM; TGI (RPMI-8226 leukemia): > 100 µM; GI50 (RXF 393 renal): 0.29 µM; TGI (RXF 393 renal): 13 µM; GI50 (SF-268 CNS): 2.08 µM; TGI (SF-268 CNS): > 100 µM; GI50 (SF-295 CNS): 3.54 µM; TGI (SF-295 CNS): > 100 µM; GI50 (SF-539 CNS): 0.476 µM; TGI (SF-539 CNS): > 100 µM; GI50 (SK-MEL-28 melanoma): > 100 µM; TGI (SK-MEL-28 melanoma): > 100 µM; GI50 (SK-MEL-5 melanoma): > 100 µM; TGI (SK-MEL-5 melanoma): > 100 µM; GI50 (SK-OV-3 ovarian): > 100 µM; TGI (SK-OV-3 ovarian): > 100 µM; GI50 (SN12C renal): > 100 µM; TGI (SN12C renal): > 100 µM; GI50 (SNB-19 CNS): 60.3 µM; TGI (SNB-19 CNS): > 100 µM; GI50 (SNB-75 CNS): 1.31 µM; TGI (SNB-75 CNS): > 100 µM; TGI (SR leukemia): 0.0523 µM; GI50 (SW-620 colon): 0.112 µM; TGI (SW-620 colon): > 100 µM; GI50 (T-47D breast): > 100 µM; TGI (T-47D breast): > 100 µM; GI50 (TK-10 renal): 23.2 µM; TGI (TK-10 renal): > 100 µM; GI50 (U251 glioblastoma): 2.09 µM; TGI (U251 glioblastoma): > 100 µM; GI50 (UACC-257 melanoma): > 100 µM; TGI (UACC-257 melanoma): > 100 µM; GI50 (UACC-62 melanoma): 7.46 µM; TGI (UACC-62 melanoma): 88.1 µM; GI50 (UO-31 renal): 14.1 µM; TGI (UO-31 renal): > 100 µM
